From patent publication US20230158105A1, “Compositions and uses of Oligo-chromopeptides and methods of making” (JDS Therapeutics, LLC, priority 2021, published 2023)
Marks after values point to notes of the source that are not given here.

What was measured:
[1] = test system: LPS-induced pyrexia in mice; experiment: LPS-induced pyrexia in mice: serum biochemistry, liver and lung antioxidant enzymes, pyrexia; format: in vivo, BALB/c mice; conditions: oral, 2 weeks before LPS, HED Se 200 μg, Zn 30 mg, O-CPs 300 mg, mean ± SD; for ALP / ALT / AST / BUN / Creatine / LDH / T Bilirubin: serum
Description: Six-week-old male BALB/c mice was purchased from the Firat University Experimental Animal Center. All mice were ad libitum access to standard rodent chow and water during the study. Mice were housed in cages throughout the study. The following conditions were maintained: temperature, 22±2° C.; relative humidity, 55±5%; and a 12-hours light: dark cycle. The care and treatment of the animals were in accordance with the guidelines established by the Use of Laboratory Animals and were approved by the Animal Care and Use Committee of Firat University. Two control groups were taken for studies. The normal control group was given PBS and the other control was given lipopolysaccharides (LPS) along with a vehicle, i.e., phosphate buffered saline. Forty-two mice were randomly divided into 6 treatment groups with 7 mice in each group as follows: Selenomethionine, zinc picolinate and O-CPs or vehicle were orally administered 2 weeks before LPS treatment. Control mice received 50 μL of PBS. Subsequently, rats in Groups 2 through 6 received LPS (0.04 mg/kg i.p.) 30 min after active treatment with Se, ZnPic, and O-CPs. Basal temperature readings for all treatments and LPS injections were done between 8.00 and 9.00 GMT to avoid temperature differences due to circadian rhythm. The change in rectal temperature in all rats were recorded 30 min after PBS or LPS injection and at subsequent 30 min intervals for 4 hours. After 6 hours of LPS treatment, the mice were euthanized and their blood, liver and lungs were collected for further analysis. Doses of selenomethionine, zinc picolinate and O-CPs were determined based on the Human Equivalent Dose (HED) for Drug Development according to Shin et al. (2010). Conversion of human doses to animal doses were based on body surface area. A conversion factor of 12.33 was used to convert human doses to mouse doses. The human equivalent dose was 200 μg of selenium (Se) from selenomethionine, 30 mg of zinc (Zn) from zinc picolinate and 300 mg of O-CPs. Selenomethionine dose: 200 μg/70 kg=2.86 μg/kg/day human*12.33=35.23 μg/kg/day per mouse; Zinc picolinate (20%) dose: 30 mg/70 kg=0.428 mg/kg/day human*12.33=5.28 elemental zinc mg/kg/day mouse=5.28*100/20=26.4 mg/kg/day per mouse; O-CPs dose: 300 mg/70 kg=4.29 mg/kg/day human*12.33=52.84 mg/kg/day per mouse. Serum levels of glucose, triglycerides, cholesterol, aspartate aminotransferase (AST), alanine aminotransferase (ALT), urea, and creatinine were analyzed with a portable automated chemistry analyzer (Samsung LABGEO PT10, Samsung Electronics Co., Suwon, Korea). Serum levels of MDA were analyzed by HPLC. Antioxidant enzymes (SOD, CAT, GSHPx) were measured using the relevant commercial kits according to the enzyme-linked immunosorbent assay (ELISA, Elx-800, Bio-Tek Instruments Inc, Vermont, USA) method. Serum, zinc and selenium levels in liver and lung were detected by atomic absorption spectroscopy (AAS). The samples size of the study was 42 mice (n=7; 6 groups) and analyzed with the help of G*Power package program (Version 3.1.9.2) with alpha error 0.05 and 85% power with effect size 0.65 calculated from previous studies. The data was analyzed using statistical analysis software (SPSS 17.0). In this study, conformity to the assumption of normality from the prerequisites of the parametric tests was performed using the “Shapiro-Wilk” test and the homogeneity of the variances were checked with the “Levene” test. Analysis of variance (ANOVA) test was performed to determine the differences between the groups and post-hoc Tukey test was used for multiple comparisons of the groups. Statistical significance was accepted as P<0.05.

[2] = test system: corticosterone (CORT) induced aging rats; experiment: CORT-induced aging rats: body weight, serum and liver biochemistry, liver telomere length; format: in vivo, Wistar rats; conditions: oral gavage daily 21 days, O-CP30/O-CP300 = 30/300 mg HED, NR 300 mg HED, mean ± SD
Description: Wistar rats (n=7 in each group; 8 weeks old) were used and animals were reared at the temperature of (22±2° C.), humidity (55±5%) and a 12/12 hour light/dark cycle. Pellet food and water were provided ad libitum. The experiment was conducted under the protocol approved by Firat University. Two control groups were taken for studies. The normal control group was given phosphate-buffered saline (PBS) and the CORT control was given corticosterone (CORT). Doses of O-CPs and NR were determined based on the Human Equivalent Dose (HED) for Drug Development according to Shin et al. (2010). Conversion of human doses to animal doses was based on body surface area. A conversion factor of 6.17 was used to convert human doses to rat doses. The human equivalent dose was 30 mg and 300 mg for O-CPs and 300 mg for nicotinamide riboside. CORT (Sigma-Aldrich Co., St. Louis, Mo., USA) was suspended in saline with 0.1% Tween 80% and 0.2% DMSO. Rats in groups 2-7 were injected daily with CORT (40 mg/kg) subcutaneously for 21 consecutive days. All injections were performed in a volume of 2 ml/kg body weight, between 7:00 and 7:10 p.m. The rats were dosed with study product involving various dosages of O-CPs, NR and their combination by oral gavage, which was administered daily for 21 days. Serum levels of glucose, triglycerides, cholesterol, aspartate aminotransferase (AST), alanine aminotransferase (ALT), urea, and creatinine were analyzed with a portable automated chemistry analyzer (Samsung LABGEO PT10, Samsung Electronics Co., Suwon, Korea). Total serum CORT levels, and levels of nicotinamide adenine dinucleotide (NAD+) and NAD+ precursors such as nicotinamide (Nam), tryptophan (Trp), nicotinic acid (Na) and nicotinamide mononucleotide (NMN) and NADPH were measured […] using a commercial kit following the manufacturer's instructions by ELISA (Elx-800, Bio-Tek Instruments Inc, Vermont, USA). Telomere length in the liver was determined by qPCR. Telomerase activity was measured according to the telomerase repeat amplification protocol using a Trapeze kit (Chemicon/Millipore, Billerica, Mass.). The levels of glutathione (GSH) and reactive oxygen species (ROS) in the rat liver were determined using the corresponding commercial ELISA kits (Wako Pure Chemical Industries) according to the manufacturer's instructions. Serum levels of malondialdehyde (MDA) were analyzed by High Performance Liquid Chromatography (HPLC). Antioxidant enzymes [superoxide dismutase (SOD), catalase (CAT), glutathione peroxidase (GSHPx)] were measured using the relevant commercial kits according to the enzyme-linked immunosorbent assay (ELISA, Elx-800, Bio-Tek Instruments Inc, Vermont, USA) method. The samples size of the study was determined to be totally 49 rats (n=7; 7 groups) with the help of G*Power package program (Version 3.1.9.2) with alpha error 0.05 and 90% power with effect size 0.7 calculated from previous studies. The data was analyzed using statistical analysis software (SPSS 17.0). In this study, conformity to the assumption of normality from the prerequisites of the parametric tests was performed using the “Shapiro-Wilk” test and the homogeneity of the variances were checked with the “Levene” test. Analysis of variance (ANOVA) test was performed to determine the differences between the groups and post-hoc Tukey test was used for multiple comparisons of the groups. Statistical significance was accepted as P<0.05.

| Compound | Liver, CAT [1] | Liver, GSHPx [1] | Liver, MDA [1] | Liver, SOD [1] | Lung, CAT [1] | Lung, GSHPx [1] | Lung, MDA [1] | Lung, SOD [1] | ALP [1] | ALT [1] | AST [1] | BUN [1] | Creatine [1] | LDH [1] | T Bilirubin [1] | also measured |
| --- | --- | --- | --- | --- | --- | --- | --- | --- | --- | --- | --- | --- | --- | --- | --- | --- |
| zinc picolinate [Zn] | 43.06 ± 3.24^c U/mg | 36.86 ± 1.98^d U/mg | 5.92 ± 0.35^b nmol/mL | 75.94 ± 5.93^c U/mg | 28.53 ± 1.70^c U/mg | 28.08 ± 1.98^c U/mg | 6.83 ± 0.30^b nmol/mL | 50.36 ± 2.93^c U/mg | 292.71 ± 15.34^ab IU/L | 280.43 ± 8.85^b IU/L | 580.86 ± 32.61^b IU/L | 35.57 ± 3.20^ab mg/dL | 0.59 ± 0.06^ab mg/dL | 216.13 ± 11.39^b IU/L | 0.97 ± 0.08^b mg/dL |  |
| NC(=O)c1ccc[n+]([C@@H]2O[C@H](CO)[C@@H](O)[C@H]2O)c1 [NR, nicotinamide riboside] |  |  |  |  |  |  |  |  |  |  |  |  |  |  |  | Liver GSH ([2]; liver): 33.25 ± 2.07^bc U/mg protein; Liver NADPH ([2]; liver): 44.42 ± 2.31^c nmol/g; Liver Nicotinamide (Nam) ([2]; liver): 1.60 ± 0.06^c μmol/g; Liver Nicotinamide adenine dinucleotide NAD+ ([2]; liver): 0.59 ± 0.04^c μmol/g; Liver Nicotinamide mono nucleotide (NMN) ([2]; liver): 0.30 ± 0.02^bc μmol/g; Liver Nicotinic acid (Na) ([2]; liver): 1.63 ± 0.09^abc μmol/g; CORT [2]: 102.16 ± 8.68^a ng/ml; Final Body Weight [2]: 222.86 ± 23.11^b g; GLU ([2]; serum glucose): 119.86 ± 7.10^ab mg/dl; ALT ([2]; serum): 98.00 ± 5.55 U/L; AST ([2]; serum): 114.71 ± 10.92 U/L; BUN ([2]; serum): 22.90 ± 1.87 mg/dL; CAT ([2]; serum): 114.69 ± 4.82^d U/ml; Creatine ([2]; serum): 0.37 ± 0.08; GSH-Px ([2]; serum): 26.28 ± 1.98^d U/ml; MDA ([2]; serum): 1.74 ± 0.07^b nmol/ml; SOD ([2]; serum): 61.36 ± 4.5^e U/ml |
| C[Se]CC[C@H](N)C(=O)O [Se, selenomethionine] | 41.89 ± 4.03^c U/mg | 44.79 ± 3.86^c U/mg | 5.86 ± 0.26^b nmol/mL | 95.16 ± 5.06^b U/mg | 32.29 ± 1.86^b U/mg | 33.86 ± 3.41^b U/mg | 6.67 ± 0.49^b nmol/mL | 59.32 ± 4.81^b U/mg | 285.43 ± 10.33^b IU/L | 261.57 ± 16.16^bc IU/L | 573.43 ± 59.23^b IU/L | 34.36 ± 3.26^b mg/dL | 0.59 ± 0.08^ab mg/dL | 192.11 ± 10.72^c IU/L | 0.95 ± 0.08^b mg/dL |  |
